Test results: patent US20070178147A1, “Liposomal compositions” (priority 2005, published 2007)
≈ marks a conversion by molar mass, not a printed value.

Legend:
[1] = Solubility of Compound 1 in pharmaceutical solvents at 25° C.; format: physicochemical
Source text: Compound 1 is a nonpeptide vasopressin receptor antagonist and is insoluble in aqueous solutions throughout the physiological pH range (1.2 to 7.5).

[2] = Precipitation of Compound 1 from cosolvent systems upon addition of water; format: physicochemical; details: cosolvent systems of PEG 400 or 300, Benzyl Alcohol, Ethanol and low amounts of bile salts; water at 30% levels in final mixture
Source text: In additional combinations as cosolvent systems, of PEG 400 or 300, Benzyl Alcohol, Ethanol and low amounts of bile salts (e.g. Sodium Deoxytauro Cholate), Compound 1 precipitated upon an addition of water at 30% levels in the final aqueous-organic mixture.

Cc1ccc(F)cc1C(=O)Nc1ccc(C(=O)N2Cc3cccn3Cc3ccccc32)c(Cl)c1 [Compound 1, 5-fluoro-2-methyl-N-[4-(5H-pyrrolo[2,1-c][1,4]benzodiazepin-10(11H)-ylcarbonyl)-3-chlorophenyl]benzamide]
solubility ([1]; aqueous buffer, 10 mM Phosphate buffer (pH 7.4), 25° C.): < 0.001 µg/mL
solubility ([1]; aqueous with cosolvent or surfactant or cyclodextrin, Aqueous solution of Poloxamer 188 (10, 20 and 30%), 25° C.): < 0.001 µg/mL
solubility ([1]; aqueous with cosolvent or surfactant or cyclodextrin, Cremophor EL, 25° C.): 5100 µg/mL (≈ 10800 µM)
solubility ([1]; aqueous with cosolvent or surfactant or cyclodextrin, Gelucire 48109, 25° C.): 2260 µg/mL (≈ 4770 µM)
solubility ([1]; aqueous with cosolvent or surfactant or cyclodextrin, Labrasol, 25° C.): 7500 µg/mL (≈ 15800 µM)
solubility ([1]; aqueous with cosolvent or surfactant or cyclodextrin, PEG 300/Alcohol/Water (40:30:30), 25° C.): 280 µg/mL (≈ 591 µM)
solubility ([1]; aqueous with cosolvent or surfactant or cyclodextrin, Sodium Lauryl sulfate, 25° C.): 20 µg/mL (≈ 42.2 µM)
solubility ([1]; fassgf or other biorelevant, SIF without enzyme, 25° C.): < 0.001 µg/mL
solubility ([1]; oil or lipid, Ethyl oleate, 25° C.): 200 µg/mL (≈ 422 µM)
solubility ([1]; oil or lipid, Miglyol 812, 25° C.): 290 µg/mL (≈ 612 µM)
solubility ([1]; oil or lipid, Neobee M5, 25° C.): 520 µg/mL (≈ 1100 µM)
solubility ([1]; oil or lipid, Oleic acid, 25° C.): 40 µg/mL (≈ 84.4 µM)
solubility ([1]; oil or lipid, Olive oil, 25° C.): 30 µg/mL (≈ 63.3 µM)
solubility ([1]; oil or lipid, Propylene glycol Laurate, 25° C.): 680 µg/mL (≈ 1430 µM)
solubility ([1]; oil or lipid, Safflower oil, 25° C.): < 0.001 µg/mL
solubility ([1]; oil or lipid, Soybean oil, 25° C.): < 0.001 µg/mL
solubility ([1]; organic solvent or mixture, Benzyl Alcohol, 25° C.): 21000 µg/mL (≈ 44400 µM)
solubility ([1]; organic solvent or mixture, Benzyl Benzoate, 25° C.): 3410 µg/mL (≈ 7200 µM)
solubility ([1]; organic solvent or mixture, Ethanol, 25° C.): 1890 µg/mL (≈ 3990 µM)
solubility ([1]; organic solvent or mixture, PEG 300, 25° C.): 14900 µg/mL (≈ 31400 µM)
solubility ([1]; organic solvent or mixture, PEG 300/Alcohol (50:50), 25° C.): 8750 µg/mL (≈ 18500 µM)
solubility ([1]; organic solvent or mixture, PEG 400, 25° C.): 26300 µg/mL (≈ 55500 µM)
solubility ([1]; organic solvent or mixture, PEG 400/Benzyl Alcohol (80:20), 25° C.): 14600 µg/mL (≈ 30800 µM)
solubility ([1]; organic solvent or mixture, Triacetin, 25° C.): 2700 µg/mL (≈ 5700 µM)
Solubility in partially aqueous solvents ([1]; partially aqueous solvents of pharmaceutically acceptable hydrophilic and lipophilic solvents): limited solubility
solubility ([1]; plasma or biological fluid, Human Serum Albumin, 25° C.): 16 µg/mL (≈ 33.8 µM)
solubility ([1]; propylene glycol (printed: Propylyne glycol), organic solvent or mixture, Propylyne glycol, 25° C.): 600 µg/mL (≈ 1270 µM)
solubility ([1]; simulated gastric fluid, SGF without enzyme, 25° C.): < 0.001 µg/mL
Solubility in aqueous solutions ([1]; throughout the physiological pH range (1.2 to 7.5)): insoluble
Behaviour upon addition of water [2]: precipitated
